In one data set the test system is DSS-induced colitis mice. The data set is described as follows: Dextran sulfate sodium (DSS)-induced colitis model, disease activity index. It counts as in vivo. As for the experimental part: The effect of NXC736 for inflammatory bowel disease was evaluated using a dextran sulfate sodium (DSS)-induced colitis model. In the mouse model, inflammatory bowel disease was induced by administering DSS to mice in drinking water at a concentration of 2.5%. Treatment groups consisted of a test group administered NXC736, a positive control administered ozanimod or methotrexate (MTX), a vehicle group and a normal control, and each group had n=10. In the model in which inflammatory bowel disease was induced, NXC736, which is the compound of the present invention, was orally administered at a dose of 5 and 10 mg/kg once a day for 7 days, ozanimod as a positive control material was orally administered at 5 mg/kg once a day, and methotrexate (MTX) as a positive control material was intraperitoneally administered at 3 mg/kg three times a week.
FIG. 3 illustrates the disease activity index (DAI) of DSS-induced colitis mice and the area under the disease activity index curve (AUC) of DSS-induced colitis mice. […] The calculation criteria for DAI are shown in the following Table 1, and the DAI was evaluated on days 0, 1, 2, 3, 4, 5, 6, 7, and 8.

Data set [1] deals with T cells, CD4 T cells, and CD8 T cells. In words: Suppressive effect on mouse immune cells (FACS of peripheral blood and bone marrow after oral administration). It counts as in vivo. To be noted: mice; for Cell number in bone marrow, percentage of control based on 0 time: listed as NXC7363, 3 mg/kg. As for the experimental part: To confirm whether NXC736, which acts on the S1P receptor, also has an effect on lymphocyte reduction, the effect of NXC736 on immune cells was evaluated. After oral administration of NXC736 at 3 mg/kg/day to mice, changes in lymphocytes in the peripheral blood (PB) stream and bone marrow (BM) were classified for T cells, CD4T cells, and CD8T cells, and FACS analysis was performed at 0, 4, 8, 12, 24, and 36 hours after the administration of a test material. A cell number was measured and shown as a percentage (%) of a control based on 0 time.

Data set [2] shares this test system. The data set is described as follows: Suppressive effect on rat immune cells (FACS of peripheral blood and bone marrow after oral administration). To be noted: SD rats. It counts as in vivo. Here is the method:
To evaluate the effect of NXC736 on rat immune cells, after oral administration of NXC736 at 10 mg/kg/day to SD rats, changes in lymphocytes in the peripheral blood (PB) stream and bone marrow (BM) were classified for T cells, CD4 T cells, and CD8 T cells, and FACS analysis was performed at 0, 4, 8, 12, 24, 36, and 48 hours after the administration of a test material. A cell number was measured and shown as a percentage (%) of a control based on 0 time, and the numbers of T cells, CD4 T cells, and CD8 T cells were measured and shown as a percentage (%) of a control based on 0 time.

Data set [3] in a line: Cardiovascular system in beagle dogs (telemetry heart rate, general symptoms). It counts as in vivo. To be noted: oral 12.5, 25 and 50 mg/kg. As for the experimental part: NXC736 was orally administered to four male beagle dogs under unanesthetized and unrestrained conditions with a remote transmitter inserted. Thereafter, the effect of NXC736 on the cardiovascular system was evaluated by measuring the heart rate for four beagle dogs, and it was confirmed with the naked eye whether abnormal symptoms appeared.
In this experiment, the experimental material was administered to each of the four beagle dogs over four steps. A 0.5% MC aqueous solution, which is an excipient, was administered as a control material in the first administration step (NXC7365 at 0 mg/kg), NXC736 at 12.5 mg/kg was administered in the second administration step, NXC736 at 25 mg/kg was administered in the third administration step, and NXC736 at 50 mg/kg was administered in the fourth administration step. The 1st to 4th administrations were performed at intervals of 1 week. In addition, at 0 hours before administration of the experimental material and at 0.5 hours, 1 hour, 2 hours, 3 hours, 4 hours, 6 hours, 8 hours, 12 hours and 24 hours after administration of the test material, the beagle dog's heart rate were measured.

Data set [4] concerns the target hERG potassium ion channels (Homo sapiens, UniProt Q12809).
[5] abbreviates: oral 3 mg/kg, peripheral blood, 4 hours, 3 mg/kg.

Where “and” joins values, the source holds several entries; their conditions need not be identical. Identical values can stand only once. Like-named read-outs stand apart in the source and are kept apart here.

Chain of hERG potassium ion channels (Q12809 whole entry): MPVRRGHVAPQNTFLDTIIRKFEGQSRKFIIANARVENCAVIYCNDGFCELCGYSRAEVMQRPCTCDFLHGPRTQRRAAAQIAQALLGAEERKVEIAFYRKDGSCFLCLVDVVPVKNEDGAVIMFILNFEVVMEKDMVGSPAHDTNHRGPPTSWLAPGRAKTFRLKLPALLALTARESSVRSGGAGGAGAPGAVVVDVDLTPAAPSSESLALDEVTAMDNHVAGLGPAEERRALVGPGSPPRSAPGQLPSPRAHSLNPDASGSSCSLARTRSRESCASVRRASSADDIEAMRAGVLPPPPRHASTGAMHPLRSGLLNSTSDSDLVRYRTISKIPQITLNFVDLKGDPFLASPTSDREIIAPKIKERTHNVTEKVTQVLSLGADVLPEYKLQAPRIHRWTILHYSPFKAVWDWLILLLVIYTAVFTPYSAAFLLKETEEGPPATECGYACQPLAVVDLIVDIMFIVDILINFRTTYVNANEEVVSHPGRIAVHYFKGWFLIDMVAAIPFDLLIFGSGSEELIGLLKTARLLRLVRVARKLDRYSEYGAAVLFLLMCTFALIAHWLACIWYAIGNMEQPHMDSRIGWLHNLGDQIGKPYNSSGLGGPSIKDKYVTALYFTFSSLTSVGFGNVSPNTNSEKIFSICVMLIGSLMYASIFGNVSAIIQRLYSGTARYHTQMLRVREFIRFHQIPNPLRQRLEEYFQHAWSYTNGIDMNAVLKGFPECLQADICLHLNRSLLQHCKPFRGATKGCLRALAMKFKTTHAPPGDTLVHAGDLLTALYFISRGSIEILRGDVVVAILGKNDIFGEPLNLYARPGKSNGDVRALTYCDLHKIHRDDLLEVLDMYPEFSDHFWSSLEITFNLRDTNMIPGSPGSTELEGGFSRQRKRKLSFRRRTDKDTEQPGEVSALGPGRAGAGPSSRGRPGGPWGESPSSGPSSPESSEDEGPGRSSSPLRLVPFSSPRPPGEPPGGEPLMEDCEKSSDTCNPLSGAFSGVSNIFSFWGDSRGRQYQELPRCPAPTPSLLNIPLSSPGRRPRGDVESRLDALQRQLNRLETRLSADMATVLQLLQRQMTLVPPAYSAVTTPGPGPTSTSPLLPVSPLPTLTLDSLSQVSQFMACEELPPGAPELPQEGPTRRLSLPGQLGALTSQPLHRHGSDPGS

As to `CN(Cc1cnc2nc(N)nc(N)c2n1)c1ccc(C(=O)N[C@@H](CCC(=O)O)C(=O)O)cc1` [MTX, methotrexate, reference compound], in the data set on DSS-induced colitis mice (MTX 3 mg/kg intraperitoneally three times a week), the “Disease activity index (DAI) and AUC compared to negative control (vehicle)” value (“Disease activity index (DAI) and AUC” below) is on record as “statistically significant reduction effect”.

In the case of `CCCCCCCCCCn1cc(CCC(N)(CO)CO)nn1` [NXC736, 2-amino-2-(2-(1-decyl-1H-1,2,3-triazol-4-yl)ethyl)propane-1,3-diol], the “Cell number in bone marrow, percentage of control based on 0 time” value in data set [1] (3 mg/kg, 4 hours after administration) is 135% and 120%; in data set [1] (3 mg/kg, 24 hours after administration) it was 131% and 118%. In addition, the “Time until which the suppressive effect on T cell number was maintained to some extent” value in data set [1] (3 mg/kg, reduced from 4 hours, then recovered) is 24 h. In addition, the “Time until which the reduction of cell number in peripheral blood was maintained” value in data set [1] (oral 3 mg/kg, peripheral blood) turned out to be 12 h. In addition, in data set [1] (setting [5]), the “CD4 T cell number in peripheral blood, percentage of control based on 0 time” value was 16.4% and 17.6%. Further, the “CD8 T cell number in peripheral blood, percentage of control based on 0 time” value in data set [1] (setting [5]) is 5.9% and 9.3%. In addition, in data set [1] (setting [5]), the “T cell number in peripheral blood, percentage of control based on 0 time” value was 40.6% and 41.6%. For the same compound, in data set [1] (oral 3 mg/kg, peripheral blood, 36 hours), the “Cell number level recovered in peripheral blood, percentage of control” value is on record as 88.9%. Besides, the “Time until which the suppressive effect on T cells was maintained” value in data set [2] (oral 10 mg/kg, peripheral blood) amounted to 24 h. The “Change of cell number in bone marrow” value in data set [2] (oral, bone marrow) is reported as “no change or a tendency to increase”. The “Suppressive effect on number of T cells in peripheral blood” value in data set [2] (oral, peripheral blood, dose-dependent (doses of the three values not given)) is 70% and 80% and 87%. Further, the “Clinical indicators (body weight loss, stool concentration, intestinal bleeding) compared to ozanimod” value with DSS-induced colitis mice (NXC736 5 mg/kg and 10 mg/kg vs ozanimod 5 mg/kg) is recorded as “equivalent values or more”. The “Disease activity index (DAI) and AUC” value in the data set on DSS-induced colitis mice (NXC736 5 mg/kg orally once a day for 7 days) and with DSS-induced colitis mice (NXC736 10 mg/kg orally once a day for 7 days) was “statistically significant reduction effect” each time. In addition, the “General symptoms observed with the naked eye” value in data set [3] was “no abnormal symptoms”. Also, the “Change in heart rate” value in data set [3] (0 to 24 hours) is “no change in heart rate”. The Hill coefficient in data set [4] is 1.527. The “Compensated suppression rate of hERG channel currents” value in data set [4] (1 μM) amounted to 9.94±1.96%; in data set [4] (3 μM), 13.98±4.48%; in data set [4] (10 μM) it was 35.03±12.09%; in data set [4] (30 μM), 82.62±7.31%.

Regarding `CC(C)Oc1ccc(-c2nc(-c3cccc4c3CC[C@@H]4NCCO)no2)cc1C#N` [ozanimod, reference compound], the “Disease activity index (DAI) and AUC” value with DSS-induced colitis mice (ozanimod 5 mg/kg orally once a day) was “statistically significant reduction effect”.

For the origin of these results see patent publication US12048689B2, “Pharmaceutical composition for preventing or treating inflammatory bowel disease acting as a functional antagonist for S1PR1 and S1PR4” (NEXTGEN BIOSCIENCE CO., LTD., priority 2022, dated 2024).
